According to US20250049819A1, “METHODS FOR TREATING AND PREVENTING C. DIFFICILE INFECTION” (Paratek Pharmaceuticals, Inc., priority 2016, published 2025):
In brackets after ≈: the same amount, converted by molar mass. Entries after “also recorded” stand apart in the source; their conditions may differ. Like-named read-outs stand apart in the source and are kept apart here.

Key:
[1] = system: C. difficile strains (N = 27); test: MIC by broth microdilution against C. difficile clinical isolates; assay type: cell-based; design: Broth Microdilution Range (Minimum Inhibitory Concentration): unit not given here; settings: 27 isolates; for MIC50 / MIC90: Clostridioides difficile
Protocol: (§1) The activity of omadacycline was tested in vitro against 27 clinical isolates of C. difficile. […] The experiments were carried out using broth and agar microdilution methods according to Clinical and Laboratory Standards Institute (CLSI) guidelines. […] Each test was run in duplicate.

[2] = system: C. difficile strain ATCC 43596; test: MIC90 against the infection model strain; assay type: cell-based
[3] = system: C. difficile strains (N = 27); test: MIC by agar dilution against C. difficile clinical isolates; assay type: cell-based; settings: 27 isolates
Protocol: as §1

[4] = system: gut microflora populations; test: In vitro human gut model, gut microflora populations (Example 4); assay type: cell-based
Protocol: (§2) The gut model was inoculated with pooled fecal slurry (5 volunteers ≥60 years of age with no history of antibiotic therapy in the previous 3 months) and left for 2 weeks to allow the bacterial populations to achieve steady state. A single inoculum (˜10^7 cfu/mL) of C. difficile spores (PCR ribotype 027 strain 210) was added into vessel 1 of the gut model on day 14. One week later, on day 21, a second aliquot of C. difficile spores was added, and antibiotic instillation commenced. Model A (LHS) was exposed to moxifloxacin (43 mg/L, once daily, for 7 days) and Model B (RHS) was exposed to omadacycline (430 mg/L, once daily, for 7 days) commenced on day 21.
(§3) Bacterial populations in the gut model were monitored using selective agars to count viable bacterial colonies. Populations were monitored every other day for the first 2 weeks until the steady state was reached, and daily thereafter. C. difficile populations were monitored in all three vessels, and all other bacterial groups (total obligate anaerobes, total facultative anaerobes, lactose fermenting Enterobacteriaceae, Enterococci, total Clostridia, Lactobacilli, Bifidobacteria and B. fragilis group) were monitored in vessels 2 and 3 only. Vessel 3, which represents the distal colon, is of most physiological relevance in terms of propensity to induce CDI. C. difficile total viable counts and spores counts were monitored using viable counting and a differential alcohol shock viable count on selective agars. From day 14 onwards C. difficile cytotoxin was measured using a quantitative VERO cell cytotoxicity assay. Samples of 1 mL each were centrifuged at 16,000×g for 15 minutes, and the supernatants were removed. Six 1:10 serial dilutions (to 10^−6) of culture supernatants from the gut model were prepared. Twenty microliters of the appropriate dilution was added to VERO cell monolayers and a further 20 μL of C. sordellii antitoxin (diluted 1:10 in sterile distilled water) was placed in the corresponding antitoxin row. Monolayers were examined after 24 and 48 hours of incubation in 5% CO2, with a positive result indicated by the presence of cell rounding with concurrent neutralization of the effect by C. sordellii antitoxin. Cytotoxin titers (relative units, RU) were an arbitrary log10 scale, and the cytotoxin titer is reported in the highest dilution with >70% cell rounding, i.e. 10^0=1 RU, 10^−1=2 RU, 10^−2=3 RU. Samples were taken daily from day 21 onwards to determine antimicrobial concentrations in the gut model vessels by a bioassay. Concentrations of moxifloxacin were determined using Isosensitest agar with Escherichia coli as the indicator organism. Concentrations of omadacyline were determined using Wilkins Chalgren agar with Kocuria rhizophila as the indicator organism.

[5] = system: C. difficile PCR ribotype 027 strain 210; test: In vitro human gut model, C. difficile germination, proliferation and toxin production (Example 4); assay type: cell-based
Protocol: as §2, §3

[6] = system: C. difficile and gut microbiota; settings: published gut model studies; cited from earlier work
[7] = system: C. difficile strain ATCC 43596; test: Hamster model of C. difficile-associated diarrhea, survival; assay type: in vivo
[8] = Wilkins-Chalgren broth, 48 hours anaerobic
[9] = Wilkins-Chalgren broth, 48 hours anaerobic, read-out: Broth Microdilution MIC90
[10] = Clostridioides difficile, ATCC43596, replicate plate A, read-out: MIC90 Plate A
[11] = Clostridioides difficile, ATCC43596, replicate plate B, read-out: MIC90 Plate B
[12] = Clostridioides difficile, ATCC43596, read-out: MIC90
[13] = vessels 2 and 3, once daily for 7 days
[14] = vessel 1, 43 mg/L once daily for 7 days
[15] = vessel 2 and vessel 3, 43 mg/L once daily for 7 days
[16] = oral 50 mg/kg/day for 5 days, N=10

CO/N=C(\C(=O)N[C@@H]1C(=O)N2C(C(=O)O)=C(COC(C)=O)CS[C@H]12)c1csc(N)n1 [Cefotaxime]
MIC50 [1, 8]: 64000 µg/mL (≈ 141000 µM)

CCC[C@@H]1C[C@@H](C(=O)N[C@@H]([C@H]2O[C@H](SC)[C@H](O)[C@@H](O)[C@H]2O)[C@H](C)Cl)N(C)C1 [Clindamycin]
MIC50 [1, 8]: 4000 µg/mL (≈ 9410 µM)
MIC90 [1, 9]: > 16000 µg/mL
MIC90 [2]: no activity
MIC90 [2, 10]: > 32 µg/mL
MIC90 [2, 11]: > 32 µg/mL

C[C@H]1c2cccc(O)c2C(=O)C2=C(O)[C@]3(O)C(=O)C(C(N)=O)=C(O)[C@@H](N(C)C)[C@@H]3[C@@H](O)[C@@H]21 [Doxycycline]
MIC90 ([1]; read-out: MIC90 by broth dilution): 0.5 µg/mL (≈ 1.13 µM)
MIC50 [1, 8]: 30 µg/mL (≈ 67.5 µM)
MIC90 [1, 9]: 500 µg/mL (≈ 1130 µM)
MIC90 ([3]; Clostridioides difficile): 1 µg/mL (≈ 2.25 µM)

C[C@@H](O)[C@H]1C(=O)N2C(C(=O)O)=C(SCCN=CN)C[C@H]12 [Imipenem]
MIC50 [1, 8]: 4000 µg/mL (≈ 13400 µM)
MIC90 [1, 9]: 8000 µg/mL (≈ 26700 µM)

Cc1ncc([N+](=O)[O-])n1CCO [Metronidazole]
MIC50 [1, 8]: 120 µg/mL (≈ 701 µM)
MIC90 [1, 9]: 500 µg/mL (≈ 2920 µM)
Agar Microdilution Range (Minimum Inhibitory Concentration) ([3]; agar dilution): 0.06 to 0.5 mg/mL
MIC90 [2, 12]: 0.06 µg/mL (≈ 0.351 µM)
MIC90 [2, 10]: 0.06 µg/mL (≈ 0.351 µM)
MIC90 [2, 11]: 0.06 µg/mL (≈ 0.351 µM)

COc1c(N2C[C@@H]3CCCN[C@@H]3C2)c(F)cc2c(=O)c(C(=O)O)cn(C3CC3)c12 [Moxifloxacin]
time for all populations to return to pre-antibiotic levels following end of antibiotic exposure ([4]; all populations): ~1 week
decline in B. fragilis group populations, vessel 2 ([4]; vessel 2, 43 mg/L once daily for 7 days): ~8 log10 cfu/mL
decline in B. fragilis group populations, vessel 3 ([4]; vessel 3, 43 mg/L once daily for 7 days): ~4 log10 cfu/mL
decline in Enterococcus spp. / Enterococci populations [4, 13]: ~4 log10 cfu/mL
decline in Lactobacilli [4, 13]: ~3 log10 cfu/mL
C. difficile toxin detection (VERO cell cytotoxicity assay) ([5]; all vessels): toxin detected in all three vessels
day by which toxin was undetectable in all vessels ([5]; all vessels): ≤ 42 days
signs of simulated CDI ([5]; once daily for 7 days, omadacycline 430 mg/L, moxifloxacin 43 mg/L): induced simulated CDI
peak C. difficile cytotoxin titer, vessel 1 [5, 14]: 2 relative units
peak C. difficile total viable counts, vessel 1 [5, 14]: ~4.5 log10 cfu/mL
peak C. difficile cytotoxin titer, vessel 2 and vessel 3 [5, 15]: 3 relative units
peak C. difficile total viable counts, vessel 2 and vessel 3 [5, 15]: ~6 log10 cfu/mL

CN(C)c1cc(NC(=O)CNC(C)(C)C)c(O)c2c1C[C@H]1C[C@H]3[C@H](N(C)C)C(O)=C(C(N)=O)C(=O)[C@@]3(O)C(O)=C1C2=O [Tigecycline]
MIC90 ([2]; Clostridioides difficile, ATCC43596): 0.06 µg/mL (≈ 0.102 µM)
MIC90 ([2]; Clostridioides difficile, ATCC43596, read-out: MIC90 Plate A): 0.06 µg/mL (≈ 0.102 µM)
MIC90 ([2]; Clostridioides difficile, ATCC43596, read-out: MIC90 Plate B): 0.06 µg/mL (≈ 0.102 µM)
induction of simulated CDI (C. difficile germination and toxin production) in the gut model [6]: do not promote C. difficile germination and toxin production; also recorded: have not induced simulated CDI in the gut model

CN[C@H](CC(C)C)C(=O)N[C@H]1C(=O)N[C@@H](CC(N)=O)C(=O)N[C@H]2C(=O)N[C@H]3C(=O)N[C@H](C(=O)N[C@H](C(=O)O)c4cc(O)cc(O)c4-c4cc3ccc4O)[C@H](O)c3ccc(c(Cl)c3)Oc3cc2cc(c3O[C@@H]2O[C@H](CO)[C@@H](O)[C@H](O)[C@H]2O[C@H]2C[C@](C)(N)[C@H](O)[C@H](C)O2)Oc2ccc(cc2Cl)[C@H]1O [Vancomycin]
MIC90 [2, 12]: 0.06 µg/mL (≈ 0.0414 µM)
MIC90 [2, 10]: 0.06 µg/mL (≈ 0.0414 µM)
MIC90 [2, 11]: 0.06 µg/mL (≈ 0.0414 µM)
Median Survival ([7]; hamster, in vivo): 2 days
percent survival at day 2 post infection ([7]; hamster, in vivo): 40%
percent survival by day 11 [7, 16]: 30%
survival by day 14 [7, 16]: all animals succumbed to the infection

amoxicillin clavulanate
Broth Microdilution MIC50 [1, 8]: 250 µg/mL
Broth Microdilution MIC90 [1, 8]: 500 µg/mL
Broth Microdilution Range (Minimum Inhibitory Concentration) [1, 8]: 0.12-0.5
Agar Microdilution MIC50 ([3]; agar dilution): 50 µg/mL
Agar Microdilution MIC90 ([3]; agar dilution): 1000 µg/mL
Agar Microdilution Range (Minimum Inhibitory Concentration) ([3]; agar dilution): 0.25-1

piperacillin-tazobactam
induction of simulated CDI (C. difficile germination and toxin production) in the gut model [6]: do not promote C. difficile germination and toxin production; also recorded: have not induced simulated CDI in the gut model
